Assays:
MDA-MB-231 = assay: Western blotting of apoptosis and autophagy markers; format: cell-based, human; details: MDA-MB-231, Western blotting
Experimental: Each sample containing 30 μg protein mixture was loaded into a well on SDS-PAGE gel and separated through electrophoresis, followed by protein determination using specific antibodies against PARP (1:1000, Cat. #9542; Cell Signaling Technology, Danvers, MA, USA), GAPDH (1:5000, Cat. GTX100118; GeneTex, Irvine, CA, USA), Bax (1:1000, Cat. ARG65612; Arigo, Glasgow, UK), Bcl-2 (1:1000, Cat. ARG55188; Arigo, Glasgow, UK) and LC3-I/II (1:1000, Cat. #12741; Cell Signaling Technology, Danvers, MA, USA). Primary antibodies were targeted by horseradish peroxidase (HRP) conjugated anti-mouse (1:5000, Cat. A9044, Sigma-Aldrich, Burlington, VT, USA) or anti-rabbit (1:5000, Cat. SI-A0545; Sigma-Aldrich, Burlington, VT, USA) secondary antibodies for visualizing immunoblots. Results were imaged by ChemiDoc system (Bio-Rad Laboratories, Hercules, CA, USA) and semi-quantification was conducted using Image Lab system (Bio-Rad Laboratories, Hercules, CA, USA).

MDA-MB-231 cells = assay: DNA fragmentation (agarose gel); format: cell-based, human; details: MDA-MB-231, 24 h
Experimental: DNA samples suspended in DNA lysis buffer containing 1.0 mM Tris hydrochloride (pH 7.5), 10 mM EDTA (pH 8.0), 10 mM sodium chloride and 0.5% Triton X-100.

calf thymus DNA (ct-DNA) = assay: UV-Vis spectrum of DNA-drug complex; format: binding; details: 25 ng/μL ct-DNA, 40-640 μM, 6 h, 37 °C
Experimental: The binding of the platinum-based agent with calf thymus DNA (ct-DNA) was assessed using UV-visible spectroscopy. […] Absorption between the wavelengths of 220 nm and 500 nm was detected by measuring absorbance every 2 nm via Thermo Varioskan Flash microplate reader (Thermo Fisher Scientific Inc., Waltham, MA, USA). The maximal absorbance of DNA at 260 nm was marked to highlight the spectrum in pure DNA without chemical intercalation.

STAT3-DN plasmid = assay: Gel-based electrophoretic mobility shift assay; format: binding; details: 24 h, 37 °C
Experimental: Plasmid DNA interacting with platinum-containing compounds was studied using agarose gel electrophoresis to separate DNA fragments dependent on sizes and structures. In total, […] of STAT3-DN plasmid (BIOTOOLS Co., New Taipei City, Taiwan) around 4.8 kb provided by Dr. Chien-Huang Lin was incubated with an equal volume of increasing concentrations of compounds (5~40 µM) at 37 °C for 24 h.

[1] = PDX model: body and organ weight, CBC and blood biochemistry; format: in vivo; details: NSG mice
Description: The procedures for the establishment of breast cancer-bearing xenograft models were modified from previous publications and approved by the Taipei Medical University (TMU) Institutional Animal Care and Use Committee (IACUC No. LAC- 2021-0546) and the Joint Institutional Review Board of Taipei Medical University (N201812005). Overall, 4- to 6-week-old NOD.Cg-PrkdcscidIl2rgtm1Wjl/SzJ (NSG) female mice purchased from BioLASCO Taiwan Co., Ltd. (Taipei, Taiwan) were housed in specific pathogen-free rooms with ad libitum feeding and 12 h light–dark cycle. Patient-derived TNBC tumors were microscopically considered for a hypervascular background and frequent mitosis features, and triple-negative results for estrogen receptor, progesterone receptor and human epidermal growth factor receptor 2 (HER2). After a week of acclimatization, patient-derived TNBC tumors dissected into 3 × 3 × 3 mm^3 were implanted using puncture needle in fat pads between the third and fourth mammary glands for each mouse. […] Tumor growth curves were generated by measuring tumor diameters and then calculating based on the same equation described above. Finally, the mice were sacrificed on day 23 after the first dose of treatments. Plasma, tumors and major organs (heart, liver, kidney, spleen and lung) were collected for toxicity assessment and metastasis evaluation. Whole blood harvested from sacrificed animals was collected in EDTA-containing or heparin-containing tubes for CBC and biochemical analysis. For biochemical analysis, whole blood was centrifuged under 2000× g for 5 min to separate plasma from blood cells and then plasma was kept and stored in a −20 °C fridge until further analysis. Concentrations of albumin, total protein, aspartate aminotransferase (AST), alanine aminotransferase (ALT) and creatinine (CREA) in plasma, numbers of red blood cells (RBC), platelets (PLT), white blood cells (WBC) and hemoglobin (HGB) concentration in EDTA-anticoagulated whole blood were determined by medical laboratory scientists in Taipei Medical University Hospital (Taipei, Taiwan).

[2] = system: P53, Ki-67, cleaved caspase 3, PD-L1; assay: Immunohistochemistry of CDX tumors; format: in vivo, mice; details: 5 mg/kg
Description: Formalin-fixed and paraffin-embedded 4 μm sections of tumor and organs from cell-bearing xenograft models were stained in hematoxylin and eosin to provide an overall morphology of tissues. Tumor sections were dewaxed with UltraClear™ (J.T.Baker, Phillipsburg, NJ, USA), rehydrated in a descending series of alcohol and water and had antigens unmasked in pH 6 or pH 9 Epitope Retrieval Solution (Leica Biosystems Inc., Wetzlar, Germany) in a microwave pressure cooker. […] VisUCyte HRP Polymer Antibody against rabbit IgG (VC003-025; R&D Systems, Minneapolis, MN, USA) and mouse IgG (VC001-025; R&D Systems, Minneapolis, MN, USA) were targeted to primary antibodies. Liquid DAB+ system from Agilent Technologies (Santa Clara, CA, USA) was applied as a chromogen for visualizing. Slides were mounted after hematoxylin counterstaining. All images were scanned using Motic EasyScan Pro 6 pathology slide scanner (Motic China Group Co., Ltd., Hong Kong, China).

[3] = 2.11 mg/kg i.v. weekly x4, day 23
[4] = 5 mg/kg i.v. weekly x4, day 23, reference interval 0.2–0.5
[5] = 5 mg/kg i.v. weekly x4, day 23, reference interval 13–39
[6] = 5 mg/kg i.v. weekly x4, day 23, reference interval 63–227
[7] = 5 mg/kg i.v. weekly x4, day 23, reference interval 853–1951
[8] = 5 mg/kg i.v. weekly x4, day of sacrifice (day 23)

SMILES	LC3 I conversion to LC3 II (autophagy marker) (MDA-MB-231)	cleaved form of PARP (MDA-MB-231)	DNA fragmentation (MDA-MB-231 cells)	change in UV-Vis absorption spectrum of ct-DNA at 260 nm (calf thymus DNA (ct-DNA))	breakage of plasmid DNA (nicked or linear forms) (STAT3-DN plasmid)	Kidney ([1]; 5 mg/kg i.v. weekly x4, day 23)	Liver ([1]; 5 mg/kg i.v. weekly x4, day 23)	Lung ([1]; 5 mg/kg i.v. weekly x4, day 23)	Spleen ([1]; 5 mg/kg i.v. weekly x4, day 23)	CREA [1, 4]	ALT [1, 5]	AST [1, 6]	PLT [1, 7]	Body weight [1, 8]	expression of P53, Ki-67 and PD-L1 in tumors (IHC) [2]	expression of cleaved caspase 3 in tumors (IHC) [2]	further results
N.N.[Cl][Pt][Cl] [CDDP, Cis-diamineplatinum(II) dichloride]	could not induce apoptotic and autophagy signaling	failed to induce the formation of the cleaved form of PARP	no sign of cisplatin-induced PS expression or DNA fragmentation	hypochromic profile	induced single or double breakages of plasmid DNA	0.35 ± 0.04 g	1.63 ± 0.22 g	0.23 ± 0.03 g	0.17 ± 0.04 g	0.15 ± 0.10 mg/dL	13.00 ± 3.27 U/L	137.00 ± 34.79 U/L	877.00 ± 170.99 10^3/µL	25.48 ± 0.98 g	lower intensity in P53, Ki-67 and PD-L1	higher intensity of cleaved caspase 3	Kidney [1, 3]: 0.33 ± 0.03 g; Liver [1, 3]: 1.51 ± 0.12 g; Lung [1, 3]: 0.23 ± 0.01 g; Spleen [1, 3]: 0.22 ± 0.07 g; CREA ([1]; 2.11 mg/kg i.v. weekly x4, day 23, reference interval 0.2–0.5): 0.20 ± 0.00 mg/dL; WBC ([1]; 2.11 mg/kg i.v. weekly x4, day 23, reference interval 4–10.9): 6.09 ± 1.32 * 10^3/µL; RBC ([1]; 2.11 mg/kg i.v. weekly x4, day 23, reference interval 7.75–9.61): 7.41 ± 0.51 10^6/µL; ALT ([1]; 2.11 mg/kg i.v. weekly x4, day 23, reference interval 13–39): 14.00 ± 4.90 U/L; AST ([1]; 2.11 mg/kg i.v. weekly x4, day 23, reference interval 63–227): 207.00 ± 101.18 U/L; PLT ([1]; 2.11 mg/kg i.v. weekly x4, day 23, reference interval 853–1951): 946.75 ± 150.28 10^3/µL; Body weight ([1]; 2.11 mg/kg i.v. weekly x4, day of sacrifice (day 23)): 24.06 ± 2.18 g; Heart ([1]; 5 mg/kg i.v. weekly x4, day 23): 0.11 ± 0.02 g
FC(F)C(F)(F)COCc1ccnc(-c2cc(COCC(F)(F)C(F)F)ccn2)c1.[Cl][Pt][Cl] [TFBPC]	LC3 I conversion to LC3 II	formation of the cleaved form of PARP	DNA fragmentation confirms TFBPC-induced apoptosis	hyperchromicity profile	induced single or double breakages of plasmid DNA	0.36 ± 0.02 g	1.58 ± 0.11 g	0.24 ± 0.02 g	0.30 ± 0.05 g	0.10 ± 0.12 mg/dL	14.75 ± 4.50 U/L	131.75 ± 31.70 U/L	872.75 ± 81.04 10^3/µL	25.72 ± 1.22 g	lowest level in expressions of P53, Ki-67 and PD-L1	highest expression of cleaved caspase 3	Bax/Bcl-2 ratio (MDA-MB-231): increase in Bax/Bcl-2 ratio; Albumin ([1]; 5 mg/kg i.v. weekly x4, day 23, reference interval 3.0–3.9): 2.93 ± 0.40 g/dL; Total protein ([1]; 5 mg/kg i.v. weekly x4, day 23, reference interval 4.5–5.5): 4.6 ± 0.32 g/dL; RBC ([1]; 5 mg/kg i.v. weekly x4, day 23, reference interval 7.75–9.61): 6.97 ± 0.58 10^6/µL; HGB ([1]; 5 mg/kg i.v. weekly x4, day 23, reference interval 12.20–13.90): 11.8 ± 0.56 g/dL
